Experimental data taken from the NIST ThermoML archive (doi:10.1021/je700266n).

Test: xn = mol fraction of the nth substance listed
Conditions: 101 kPa, Liquid

CCCCn1cc[n+](C)c1.F[B-](F)(F)F [1-butyl-3-methylimidazolium tetrafluoroborate] + CCCO
mass density [kg/m3]
Conditions	293.15 K	298.15 K	303.15 K	308.15 K	313.15 K	323.15 K	333.15 K	343.15 K
x1 = 0.3999	1054.66	1051.03	1047.17	1043.37	1039.88	1032.41	1024.28	1016.75
x1 = 0.4498	1072.68	1068.9	1065.03	1061.22	1057.72	1050.32	1042.29	1034.83
x1 = 0.5001	1089.08	1085.28	1081.39	1077.57	1074.09	1066.73	1058.77	1051.38
x1 = 0.6001	1117.7	1113.99	1110.15	1106.39	1103.01	1095.73	1087.82	1080.57
x1 = 0.6978	1141.41	1137.71	1133.91	1130.15	1126.78	1119.64	1111.83	1104.68
x1 = 0.8002	1163	1159.35	1155.61	1151.92	1148.61	1141.54	1133.81	1126.78
x1 = 0.9003	1180.65	1176.99	1173.25	1169.56	1166.26	1159.25	1151.58	1144.59
x1 = 1	1195.71	1192.07	1188.37	1184.72	1181.43	1174.49	1166.89	1159.97
